Key:
[1] = test system: Tyrosine-protein kinase ABL1 (Homo sapiens), P00519 [Q252H]; conditions: Compound concentration 1000.0 nM
[2] = target: Activin receptor type-1B (Homo sapiens) (UniProt P36896); conditions: Compound concentration 1000.0 nM
[3] = target: RAC-alpha serine/threonine-protein kinase (Homo sapiens) (UniProt P31749); conditions: Compound concentration 1000.0 nM
[4] = target: 5'-AMP-activated protein kinase catalytic subunit alpha-2 (Homo sapiens) (UniProt P54646); conditions: Compound concentration 1000.0 nM
[5] = target: Serine/threonine-protein kinase B-raf (Homo sapiens) (UniProt P15056); conditions: Compound concentration 1000.0 nM
[6] = target: Dual specificity protein kinase CLK4 (Homo sapiens) (UniProt Q9HAZ1); conditions: Compound concentration 1000.0 nM
[7] = target: Macrophage colony-stimulating factor 1 receptor (Homo sapiens) (UniProt P07333); conditions: Compound concentration 1000.0 nM
[8] = target: Megakaryocyte-associated tyrosine-protein kinase (Homo sapiens) (UniProt P42679); conditions: Compound concentration 1000.0 nM
[9] = target: Death-associated protein kinase 1 (Homo sapiens) (UniProt P53355); conditions: Compound concentration 1000.0 nM
[10] = target: Serine/threonine-protein kinase MRCK gamma (Homo sapiens) (UniProt Q6DT37); conditions: Compound concentration 1000.0 nM
[11] = target: Eukaryotic translation initiation factor 2-alpha kinase 1 (Homo sapiens) (UniProt Q9BQI3); conditions: Compound concentration 1000.0 nM
[12] = target: Ephrin type-A receptor 4 (Homo sapiens) (UniProt P54764); conditions: Compound concentration 1000.0 nM
[13] = target: Ephrin type-A receptor 5 (Homo sapiens) (UniProt P54756); conditions: Compound concentration 1000.0 nM
[14] = target: Ephrin type-B receptor 3 (Homo sapiens) (UniProt P54753); conditions: Compound concentration 1000.0 nM
[15] = target: Receptor tyrosine-protein kinase erbB-2 (Homo sapiens) (UniProt P04626); conditions: Compound concentration 1000.0 nM
[16] = target: Receptor tyrosine-protein kinase erbB-4 (Homo sapiens) (UniProt Q15303); conditions: Compound concentration 1000.0 nM
[17] = target: Mitogen-activated protein kinase 1 (Homo sapiens) (UniProt P28482); conditions: Compound concentration 1000.0 nM
[18] = target: Receptor-type tyrosine-protein kinase FLT3 (Homo sapiens) (UniProt P36888); conditions: Compound concentration 1000.0 nM
[19] = test system: Receptor-type tyrosine-protein kinase FLT3 (Homo sapiens), P36888 [D835Y]; conditions: Compound concentration 1000.0 nM
[20] = target: Tyrosine-protein kinase Fyn (Homo sapiens) (UniProt P06241); conditions: Compound concentration 1000.0 nM
Chain of Tyrosine-protein kinase Fyn (Homo sapiens) (P06241 2-537 limits assumed): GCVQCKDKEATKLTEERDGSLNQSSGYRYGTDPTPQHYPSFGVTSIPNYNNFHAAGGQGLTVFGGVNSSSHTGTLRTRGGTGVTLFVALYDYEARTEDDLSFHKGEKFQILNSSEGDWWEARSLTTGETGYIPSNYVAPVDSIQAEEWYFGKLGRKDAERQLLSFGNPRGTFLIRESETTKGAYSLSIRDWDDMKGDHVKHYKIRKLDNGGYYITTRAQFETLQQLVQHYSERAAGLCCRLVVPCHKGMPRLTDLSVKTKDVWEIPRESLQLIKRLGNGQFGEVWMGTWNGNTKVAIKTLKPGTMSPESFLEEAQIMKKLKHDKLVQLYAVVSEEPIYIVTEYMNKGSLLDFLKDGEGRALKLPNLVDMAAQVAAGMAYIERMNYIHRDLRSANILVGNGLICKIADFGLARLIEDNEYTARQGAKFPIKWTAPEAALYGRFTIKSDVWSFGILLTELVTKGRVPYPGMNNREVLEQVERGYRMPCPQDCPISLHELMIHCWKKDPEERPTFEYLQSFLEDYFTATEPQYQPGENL

[21] = target: Mitogen-activated protein kinase 9 (Homo sapiens) (UniProt P45984); conditions: Compound concentration 1000.0 nM
[22] = target: LIM domain kinase 2 (Homo sapiens) (UniProt P53671); conditions: Compound concentration 1000.0 nM
[23] = test system: Leucine-rich repeat serine/threonine-protein kinase 2 (Homo sapiens), Q5S007 [G2019S]; conditions: Compound concentration 1000.0 nM
Chain of Leucine-rich repeat serine/threonine-protein kinase 2 (Homo sapiens), Q5S007 [G2019S] (Q5S007 whole entry G2019S): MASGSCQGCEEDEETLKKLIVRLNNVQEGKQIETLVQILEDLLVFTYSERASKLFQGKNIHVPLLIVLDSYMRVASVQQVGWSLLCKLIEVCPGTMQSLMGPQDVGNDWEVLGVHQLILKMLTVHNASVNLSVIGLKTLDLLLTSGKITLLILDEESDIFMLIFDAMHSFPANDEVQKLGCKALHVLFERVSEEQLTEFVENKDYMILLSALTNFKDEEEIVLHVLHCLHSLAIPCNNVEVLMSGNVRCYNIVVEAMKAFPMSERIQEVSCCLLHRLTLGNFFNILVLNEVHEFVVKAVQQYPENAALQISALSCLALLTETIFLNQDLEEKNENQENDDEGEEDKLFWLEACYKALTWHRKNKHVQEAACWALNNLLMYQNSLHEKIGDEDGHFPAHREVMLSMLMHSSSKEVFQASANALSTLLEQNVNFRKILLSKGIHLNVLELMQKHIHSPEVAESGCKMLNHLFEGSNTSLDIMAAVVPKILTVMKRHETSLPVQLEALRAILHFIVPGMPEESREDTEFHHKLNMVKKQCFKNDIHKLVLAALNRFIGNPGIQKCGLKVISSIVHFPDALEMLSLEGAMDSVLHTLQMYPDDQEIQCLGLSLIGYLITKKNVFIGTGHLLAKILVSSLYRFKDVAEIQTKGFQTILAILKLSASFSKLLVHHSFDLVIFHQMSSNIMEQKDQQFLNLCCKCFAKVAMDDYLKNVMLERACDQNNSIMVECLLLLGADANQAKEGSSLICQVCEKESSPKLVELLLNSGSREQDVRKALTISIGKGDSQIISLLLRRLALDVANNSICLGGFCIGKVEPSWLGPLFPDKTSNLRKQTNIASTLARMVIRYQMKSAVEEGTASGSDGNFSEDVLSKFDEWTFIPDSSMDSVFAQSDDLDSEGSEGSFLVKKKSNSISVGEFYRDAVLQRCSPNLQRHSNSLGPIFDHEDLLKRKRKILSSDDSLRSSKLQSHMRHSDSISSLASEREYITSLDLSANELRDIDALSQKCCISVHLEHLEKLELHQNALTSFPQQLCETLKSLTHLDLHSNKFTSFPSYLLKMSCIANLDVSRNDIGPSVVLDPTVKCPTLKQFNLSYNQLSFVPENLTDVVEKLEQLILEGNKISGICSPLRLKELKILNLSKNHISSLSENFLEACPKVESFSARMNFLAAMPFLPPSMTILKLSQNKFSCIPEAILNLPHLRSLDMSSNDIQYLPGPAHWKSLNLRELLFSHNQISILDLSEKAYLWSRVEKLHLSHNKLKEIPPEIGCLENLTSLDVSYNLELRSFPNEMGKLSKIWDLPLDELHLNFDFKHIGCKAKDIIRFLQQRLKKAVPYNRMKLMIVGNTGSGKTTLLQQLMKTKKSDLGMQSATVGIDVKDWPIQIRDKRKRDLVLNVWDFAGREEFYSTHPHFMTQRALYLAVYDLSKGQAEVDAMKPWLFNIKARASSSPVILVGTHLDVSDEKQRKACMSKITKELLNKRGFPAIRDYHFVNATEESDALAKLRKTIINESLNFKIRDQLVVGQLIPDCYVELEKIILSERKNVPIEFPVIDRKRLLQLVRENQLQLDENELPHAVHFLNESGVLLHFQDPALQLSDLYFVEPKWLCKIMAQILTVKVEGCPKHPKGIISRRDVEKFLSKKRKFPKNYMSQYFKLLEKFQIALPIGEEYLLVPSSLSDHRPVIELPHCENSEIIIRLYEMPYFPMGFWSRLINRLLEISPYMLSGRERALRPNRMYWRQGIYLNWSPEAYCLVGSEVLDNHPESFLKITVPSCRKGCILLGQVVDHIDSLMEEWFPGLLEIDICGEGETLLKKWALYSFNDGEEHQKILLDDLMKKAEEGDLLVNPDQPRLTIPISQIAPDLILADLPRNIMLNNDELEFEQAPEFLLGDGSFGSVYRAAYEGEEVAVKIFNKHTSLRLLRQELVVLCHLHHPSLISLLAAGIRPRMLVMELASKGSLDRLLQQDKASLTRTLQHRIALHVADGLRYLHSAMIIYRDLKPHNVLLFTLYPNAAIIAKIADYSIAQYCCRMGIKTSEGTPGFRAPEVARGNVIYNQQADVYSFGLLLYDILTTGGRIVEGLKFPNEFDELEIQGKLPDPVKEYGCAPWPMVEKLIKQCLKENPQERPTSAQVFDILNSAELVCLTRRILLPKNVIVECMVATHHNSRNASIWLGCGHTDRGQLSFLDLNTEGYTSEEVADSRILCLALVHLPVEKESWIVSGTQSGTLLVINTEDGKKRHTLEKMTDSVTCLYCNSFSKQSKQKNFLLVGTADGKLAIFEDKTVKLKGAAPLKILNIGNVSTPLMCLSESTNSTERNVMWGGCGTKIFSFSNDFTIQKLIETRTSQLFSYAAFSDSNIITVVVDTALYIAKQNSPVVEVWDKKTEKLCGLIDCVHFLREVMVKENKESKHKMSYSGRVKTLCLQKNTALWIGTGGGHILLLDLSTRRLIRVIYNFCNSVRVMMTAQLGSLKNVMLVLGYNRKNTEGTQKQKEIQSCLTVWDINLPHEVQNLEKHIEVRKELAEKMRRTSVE

[24] = target: Leukocyte tyrosine kinase receptor (Homo sapiens) (UniProt P29376); conditions: Compound concentration 1000.0 nM
[25] = target: Tyrosine-protein kinase Lyn (Homo sapiens) (UniProt P07948); conditions: Compound concentration 1000.0 nM
Chain of Tyrosine-protein kinase Lyn (Homo sapiens) (P07948 2-512 limits assumed): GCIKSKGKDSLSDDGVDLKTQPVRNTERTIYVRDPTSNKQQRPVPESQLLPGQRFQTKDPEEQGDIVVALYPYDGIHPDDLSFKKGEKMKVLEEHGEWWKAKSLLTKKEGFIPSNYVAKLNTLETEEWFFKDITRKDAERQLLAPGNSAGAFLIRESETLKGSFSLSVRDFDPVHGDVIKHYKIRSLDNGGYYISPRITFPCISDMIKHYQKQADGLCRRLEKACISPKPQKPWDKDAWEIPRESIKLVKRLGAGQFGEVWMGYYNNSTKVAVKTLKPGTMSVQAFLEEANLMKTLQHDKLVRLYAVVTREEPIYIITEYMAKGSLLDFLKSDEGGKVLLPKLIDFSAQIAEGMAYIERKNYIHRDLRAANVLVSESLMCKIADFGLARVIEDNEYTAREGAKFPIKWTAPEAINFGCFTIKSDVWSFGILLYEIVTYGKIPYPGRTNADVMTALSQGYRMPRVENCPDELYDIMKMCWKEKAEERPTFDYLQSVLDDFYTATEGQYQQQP

[26] = target: Serine/threonine-protein kinase MARK2 (Homo sapiens) (UniProt Q7KZI7); conditions: Compound concentration 1000.0 nM
[27] = target: Serine/threonine-protein kinase mTOR (Homo sapiens) (UniProt P42345); conditions: Compound concentration 1000.0 nM
[28] = target: Platelet-derived growth factor receptor beta (Homo sapiens) (UniProt P09619); conditions: Compound concentration 1000.0 nM
[29] = target: Phosphatidylinositol 4,5-bisphosphate 3-kinase catalytic subunit alpha isoform (Homo sapiens) (UniProt P42336); conditions: Compound concentration 1000.0 nM
[30] = target: Serine/threonine-protein kinase Sgk1 (Homo sapiens) (UniProt O00141); conditions: Compound concentration 1000.0 nM
[31] = target: Serine/threonine-protein kinase 33 (Homo sapiens) (UniProt Q9BYT3); conditions: Compound concentration 1000.0 nM
[32] = target: Serine/threonine-protein kinase 36 (Homo sapiens) (UniProt Q9NRP7); conditions: Compound concentration 1000.0 nM
Chain of Serine/threonine-protein kinase 36 (Homo sapiens) (Q9NRP7 whole entry): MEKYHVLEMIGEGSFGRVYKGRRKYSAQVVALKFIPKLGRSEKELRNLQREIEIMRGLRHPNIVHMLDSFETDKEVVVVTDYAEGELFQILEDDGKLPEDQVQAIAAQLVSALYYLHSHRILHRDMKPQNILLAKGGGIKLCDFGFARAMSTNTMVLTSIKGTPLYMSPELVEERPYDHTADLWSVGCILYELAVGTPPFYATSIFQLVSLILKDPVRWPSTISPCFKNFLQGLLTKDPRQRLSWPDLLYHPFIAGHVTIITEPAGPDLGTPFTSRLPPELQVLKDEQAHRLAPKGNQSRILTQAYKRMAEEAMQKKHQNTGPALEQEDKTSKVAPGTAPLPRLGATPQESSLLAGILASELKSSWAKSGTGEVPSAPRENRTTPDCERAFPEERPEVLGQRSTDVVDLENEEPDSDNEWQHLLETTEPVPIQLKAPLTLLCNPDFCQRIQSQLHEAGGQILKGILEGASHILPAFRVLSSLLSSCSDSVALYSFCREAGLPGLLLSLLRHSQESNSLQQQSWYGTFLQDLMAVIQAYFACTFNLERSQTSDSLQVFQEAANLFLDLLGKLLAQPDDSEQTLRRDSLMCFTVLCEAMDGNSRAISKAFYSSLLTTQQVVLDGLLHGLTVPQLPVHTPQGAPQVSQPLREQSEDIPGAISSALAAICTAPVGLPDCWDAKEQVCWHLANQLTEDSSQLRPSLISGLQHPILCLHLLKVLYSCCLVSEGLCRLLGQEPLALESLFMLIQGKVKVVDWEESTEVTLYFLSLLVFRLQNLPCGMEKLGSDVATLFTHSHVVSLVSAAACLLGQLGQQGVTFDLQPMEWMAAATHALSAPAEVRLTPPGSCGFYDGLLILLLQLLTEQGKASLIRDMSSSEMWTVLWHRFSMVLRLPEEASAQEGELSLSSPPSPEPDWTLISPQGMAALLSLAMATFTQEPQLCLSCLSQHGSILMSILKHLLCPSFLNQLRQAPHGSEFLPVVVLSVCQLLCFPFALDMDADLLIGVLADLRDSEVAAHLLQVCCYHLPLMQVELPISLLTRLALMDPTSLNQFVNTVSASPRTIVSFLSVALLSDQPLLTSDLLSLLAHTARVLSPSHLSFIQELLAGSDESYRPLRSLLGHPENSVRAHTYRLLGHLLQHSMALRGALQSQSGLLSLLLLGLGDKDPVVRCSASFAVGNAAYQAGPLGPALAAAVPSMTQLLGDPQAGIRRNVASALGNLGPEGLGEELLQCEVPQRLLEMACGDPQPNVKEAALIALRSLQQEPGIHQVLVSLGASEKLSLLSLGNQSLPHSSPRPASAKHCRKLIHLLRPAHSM

[33] = target: Serine/threonine-protein kinase tousled-like 2 (Homo sapiens) (UniProt Q86UE8); conditions: Compound concentration 1000.0 nM
[34] = target: Activated CDC42 kinase 1 (Homo sapiens) (UniProt Q07912); conditions: Compound concentration 1000.0 nM
[35] = target: Serine/threonine-protein kinase WNK1 (Homo sapiens) (UniProt Q9H4A3); conditions: Compound concentration 1000.0 nM
[36] = target: 5-hydroxytryptamine receptor 2B (Homo sapiens) (UniProt P41595); conditions: Compound concentration 10.0 uM
[37] = target: 5-hydroxytryptamine receptor 3A (Homo sapiens) (UniProt P46098); conditions: Compound concentration 10.0 uM
[38] = target: T1, Muscarinic acetylcholine receptor M1 (Homo sapiens) (UniProt P11229); conditions: Compound concentration 10.0 uM
T1 sequence (whole entry): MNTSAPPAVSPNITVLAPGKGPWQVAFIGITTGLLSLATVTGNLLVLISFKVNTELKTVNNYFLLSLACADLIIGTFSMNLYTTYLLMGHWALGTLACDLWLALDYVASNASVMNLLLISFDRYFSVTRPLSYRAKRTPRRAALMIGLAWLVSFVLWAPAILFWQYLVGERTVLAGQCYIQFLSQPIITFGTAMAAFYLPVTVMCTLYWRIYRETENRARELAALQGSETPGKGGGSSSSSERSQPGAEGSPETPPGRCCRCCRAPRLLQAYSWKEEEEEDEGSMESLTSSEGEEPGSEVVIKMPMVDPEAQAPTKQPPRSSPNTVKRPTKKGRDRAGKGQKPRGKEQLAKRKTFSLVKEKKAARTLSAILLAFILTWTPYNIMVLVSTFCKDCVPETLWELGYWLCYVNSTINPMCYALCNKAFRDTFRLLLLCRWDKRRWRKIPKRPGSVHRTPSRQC

[39] = target: Muscarinic acetylcholine receptor M4 (Homo sapiens) (UniProt P08173); conditions: Compound concentration 10.0 uM

Row | Structure (SMILES) | residual activity [1] | residual activity [2] | residual activity [3] | residual activity [4] | residual activity [5] | residual activity [6] | residual activity [7] | residual activity [8] | residual activity [9] | residual activity [10] | residual activity [11] | residual activity [12] | residual activity [13] | residual activity [14] | residual activity [15] | residual activity [16] | residual activity [17] | residual activity [18] | residual activity [19] | residual activity [20] | also measured
1 | NS(=O)(=O)c1cc(NC(=O)C2(c3ccccc3Cl)CC2)ccc1Oc1cccc(Cl)c1 [BAY-207] | 71% | 89% | 78% | 87% | 71% | 100% | 100% | 100% | 98% | 82% | 95% | 100% | 79% | 62% | 49% | 75% | 75% | 100% | 100% | 100% | residual activity [21]: 100%; residual activity [22]: 82%; residual activity [23]: 100%; residual activity [24]: 73%; residual activity [25]: 83%; residual activity [26]: 100%; residual activity [27]: 100%; residual activity [28]: 90%; residual activity [29]: 100%; residual activity [30]: 100%; residual activity [31]: 100%; residual activity [32]: 99%; residual activity [33]: 100%; residual activity [34]: 82%; residual activity [35]: 88%; inhibition [36]: 21.1%; inhibition [37]: 3.19%; inhibition [38]: -3.55%; inhibition [39]: -1.95%
2 | NS(=O)(=O)c1cc(NC(=O)Cc2ccccc2)ccc1Oc1cccc(Cl)c1 [BAY-1797] | 55% | 98% | 100% | 82% | 96% | 83% | 51% | 68% | 90% | 100% | 83% | 97% | 62% | 94% | 87% | 56% | 71% | 100% | 95% | 69% | residual activity [21]: 83%; residual activity [22]: 88%; residual activity [23]: 100%; residual activity [24]: 87%; residual activity [25]: 99%; residual activity [26]: 59%; residual activity [27]: 92%; residual activity [28]: 76%; residual activity [29]: 89%; residual activity [30]: 87%; residual activity [31]: 100%; residual activity [32]: 100%; residual activity [33]: 100%; residual activity [34]: 79%; residual activity [35]: 89%; inhibition [36]: 30.2%; inhibition [37]: 19.9%; inhibition [38]: 11.4%; inhibition [39]: 10.2%

From ChEMBL document CHEMBL4507265 (2021)
